Measurements: PubChem BioAssay AID1963983 (Molecular Pharmacology Branch, DTP, NCI, 2024)
Blank lines part the entries; values can stand above or below the compound they belong to.

Tested on: 186277-243-T-J2-PDC multi-cell spheroid viability
Assay: Anticancer human tumor 186277-243-T-J2-PDC patient-derived colon adenocarcinoma cell line growth inhibition [PI3K]
Conditions: for viability, T/C: stronger effect = lower value
Summary of the method: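 Three cell types, namely tumor cells, endothelial cells and mesenchymal stem cells, formed each spheroid. Combinations with four PI3K inhibitors were screened at clinically achievable concentrations decreasing by half-log, and spheroid viability was recorded.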

[1] = curve of first compound, second compound 0.0316 µM
[2] = curve of first compound, second compound 0.1 µM
[3] = curve of first compound, second compound 0.316 µM
[4] = curve of first compound, second compound 1 µM
[5] = curve of first compound, second compound 3.16 µM
[6] = curve of first compound, second compound 10 µM
[7] = second compound 0.0316 µM, first compound 0.000316 µM
[8] = second compound 0.0316 µM, first compound 0.001 µM
[9] = second compound 0.0316 µM, first compound 0.00316 µM
[10] = second compound 0.0316 µM, first compound 0.01 µM
[11] = second compound 0.0316 µM, first compound 0.0316 µM
[12] = second compound 0.0316 µM, first compound 0.1 µM
[13] = second compound 0.1 µM, first compound 0.000316 µM
[14] = second compound 0.1 µM, first compound 0.001 µM
[15] = second compound 0.1 µM, first compound 0.00316 µM
[16] = second compound 0.1 µM, first compound 0.01 µM
[17] = second compound 0.1 µM, first compound 0.0316 µM
[18] = second compound 0.1 µM, first compound 0.1 µM
[19] = second compound 0.316 µM, first compound 0.000316 µM
[20] = second compound 0.316 µM, first compound 0.001 µM
[21] = second compound 0.316 µM, first compound 0.00316 µM
[22] = second compound 0.316 µM, first compound 0.01 µM
[23] = second compound 0.316 µM, first compound 0.0316 µM
[24] = second compound 0.316 µM, first compound 0.1 µM
[25] = second compound 1 µM, first compound 0.000316 µM
[26] = second compound 1 µM, first compound 0.001 µM
[27] = second compound 1 µM, first compound 0.00316 µM
[28] = second compound 1 µM, first compound 0.01 µM
[29] = second compound 1 µM, first compound 0.0316 µM
[30] = second compound 1 µM, first compound 0.1 µM
[31] = second compound 3.16 µM, first compound 0.0316 µM
[32] = second compound 3.16 µM, first compound 0.1 µM
[33] = second compound 10 µM, first compound 0.0316 µM
[34] = second compound 10 µM, first compound 0.1 µM
[35] = second compound 0.0316 µM, first compound 0.316 µM
[36] = second compound 0.0316 µM, first compound 1 µM
[37] = second compound 0.0316 µM, first compound 3.16 µM
[38] = second compound 0.0316 µM, first compound 10 µM
[39] = second compound 0.1 µM, first compound 0.316 µM
[40] = second compound 0.1 µM, first compound 1 µM
[41] = second compound 0.1 µM, first compound 3.16 µM
[42] = second compound 0.1 µM, first compound 10 µM
[43] = second compound 0.316 µM, first compound 0.316 µM
[44] = second compound 0.316 µM, first compound 1 µM
[45] = second compound 0.316 µM, first compound 3.16 µM
[46] = second compound 0.316 µM, first compound 10 µM
[47] = second compound 1 µM, first compound 0.316 µM
[48] = second compound 1 µM, first compound 1 µM
[49] = second compound 1 µM, first compound 3.16 µM
[50] = second compound 1 µM, first compound 10 µM
[51] = second compound 3.16 µM, first compound 0.316 µM
[52] = second compound 3.16 µM, first compound 1 µM
[53] = second compound 3.16 µM, first compound 3.16 µM
[54] = second compound 3.16 µM, first compound 10 µM
[55] = second compound 10 µM, first compound 0.316 µM
[56] = second compound 10 µM, first compound 1 µM
[57] = second compound 10 µM, first compound 3.16 µM
[58] = second compound 10 µM, first compound 10 µM
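Also: spheroids exposed to compounds for seven days before viability reading.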
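For viability, T/C in this document: 100% = DMSO vehicle control viability.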

- IC50 [1]: > 100 nM
- IC50 [2]: > 100 nM
- IC50 [3]: > 100 nM
- IC50 [4]: > 100 nM
- IC50 [5]: 2.54 nM
- IC50 [6]: < 0.316 nM
Structure (SMILES): Cn1ncnc1[C@H]1c2n[nH]c(=O)c3cc(F)cc(c23)N[C@@H]1c1ccc(F)cc1 + Cc1nc(NC(=O)N2CCCC2C(N)=O)sc1-c1ccnc(C(C)(C)C(F)(F)F)c1
- viability, T/C [7]: 86.8%
- viability, T/C [8]: 82.2%
- viability, T/C [9]: 94.5%
- viability, T/C [10]: 96.9%
- viability, T/C [11]: 112%
- viability, T/C [12]: 92.7%
- viability, T/C [13]: 114%
- viability, T/C [14]: 99.6%
- viability, T/C [15]: 97.1%
- viability, T/C [16]: 117%
- viability, T/C [17]: 116%
- viability, T/C [18]: 108%
- viability, T/C [19]: 114%
- viability, T/C [20]: 113%
- viability, T/C [21]: 112%
- viability, T/C [22]: 107%
- viability, T/C [23]: 104%
- viability, T/C [24]: 90.4%
- viability, T/C [25]: 101%
- viability, T/C [26]: 94.9%
- viability, T/C [27]: 99.9%
- viability, T/C [28]: 91.6%
- viability, T/C [29]: 85.5%
- viability, T/C [30]: 65.9%
- viability, T/C (second compound 3.16 µM, first compound 0.000316 µM): 64.3%
- viability, T/C (second compound 3.16 µM, first compound 0.001 µM): 52.7%
- viability, T/C (second compound 3.16 µM, first compound 0.00316 µM): 45.9%
- viability, T/C (second compound 3.16 µM, first compound 0.01 µM): 46.9%
- viability, T/C [31]: 43.9%
- viability, T/C [32]: 33.6%
- viability, T/C (second compound 10 µM, first compound 0.000316 µM): 13.6%
- viability, T/C (second compound 10 µM, first compound 0.001 µM): 12%
- viability, T/C (second compound 10 µM, first compound 0.00316 µM): 14.8%
- viability, T/C (second compound 10 µM, first compound 0.01 µM): 17.4%
- viability, T/C [33]: 11.3%
- viability, T/C [34]: 8.17%

- IC50 (curve of first compound, second compound 0.00316 µM): > 100 nM
- IC50 (curve of first compound, second compound 0.01 µM): > 100 nM
- IC50 [1]: 21.4 nM
- IC50 [2]: < 0.316 nM
- IC50 [3]: < 0.316 nM
- IC50 [4]: < 0.316 nM
Structure (SMILES): Cn1ncnc1[C@H]1c2n[nH]c(=O)c3cc(F)cc(c23)N[C@@H]1c1ccc(F)cc1 + COc1c(OCCCN2CCOCC2)ccc2c3n(c(=NC(=O)c4cnc(N)nc4)nc12)CCN3
- viability, T/C (second compound 0.00316 µM, first compound 0.000316 µM): 102%
- viability, T/C (second compound 0.00316 µM, first compound 0.001 µM): 100%
- viability, T/C (second compound 0.00316 µM, first compound 0.00316 µM): 105%
- viability, T/C (second compound 0.00316 µM, first compound 0.01 µM): 80.9%
- viability, T/C (second compound 0.00316 µM, first compound 0.0316 µM): 88%
- viability, T/C (second compound 0.00316 µM, first compound 0.1 µM): 79.5%
- viability, T/C (second compound 0.01 µM, first compound 0.000316 µM): 93.8%
- viability, T/C (second compound 0.01 µM, first compound 0.001 µM): 96%
- viability, T/C (second compound 0.01 µM, first compound 0.00316 µM): 83.6%
- viability, T/C (second compound 0.01 µM, first compound 0.01 µM): 98.3%
- viability, T/C (second compound 0.01 µM, first compound 0.0316 µM): 85.5%
- viability, T/C (second compound 0.01 µM, first compound 0.1 µM): 68.7%
- viability, T/C [7]: 66%
- viability, T/C [8]: 63.8%
- viability, T/C [9]: 58.9%
- viability, T/C [10]: 54.6%
- viability, T/C [11]: 47.2%
- viability, T/C [12]: 40.8%
- viability, T/C [13]: 22.2%
- viability, T/C [14]: 15.9%
- viability, T/C [15]: 16.7%
- viability, T/C [16]: 13%
- viability, T/C [17]: 14.1%
- viability, T/C [18]: 9.78%
- viability, T/C [19]: 4.1%
- viability, T/C [20]: 7.07%
- viability, T/C [21]: 5.01%
- viability, T/C [22]: 6.2%
- viability, T/C [23]: 4.54%
- viability, T/C [24]: 4.17%
- viability, T/C [25]: 3.72%
- viability, T/C [26]: 4.99%
- viability, T/C [27]: 1.76%
- viability, T/C [28]: 1.73%
- viability, T/C [29]: 3.49%
- viability, T/C [30]: 2.04%

- IC50 [1]: 1500 nM
- IC50 [2]: 1330 nM
- IC50 [3]: 1080 nM
- IC50 [4]: 516 nM
- IC50 [5]: 304 nM
- IC50 [6]: 182 nM
Structure (SMILES): Cn1ncc(Cl)c1-c1cc(C(=O)NC(CN)Cc2cccc(F)c2)sc1Cl (stereo not given) + CC(Nc1ncnc2nc[nH]c12)c1cc2cccc(Cl)c2c(=O)n1-c1ccccc1
- viability, T/C [11]: 82.5%
- viability, T/C [12]: 83.6%
- viability, T/C [35]: 55.5%
- viability, T/C [36]: 56.8%
- viability, T/C [37]: 46.1%
- viability, T/C [38]: 15.4%
- viability, T/C [17]: 84.1%
- viability, T/C [18]: 90.4%
- viability, T/C [39]: 54.2%
- viability, T/C [40]: 56.1%
- viability, T/C [41]: 44.3%
- viability, T/C [42]: 17.5%
- viability, T/C [23]: 99.9%
- viability, T/C [24]: 86.9%
- viability, T/C [43]: 60.9%
- viability, T/C [44]: 48.8%
- viability, T/C [45]: 44.6%
- viability, T/C [46]: 16.1%
- viability, T/C [29]: 97.4%
- viability, T/C [30]: 78.3%
- viability, T/C [47]: 48%
- viability, T/C [48]: 43.1%
- viability, T/C [49]: 37.1%
- viability, T/C [50]: 13.1%
- viability, T/C [31]: 83.8%
- viability, T/C [32]: 70.6%
- viability, T/C [51]: 45%
- viability, T/C [52]: 31.8%
- viability, T/C [53]: 25.6%
- viability, T/C [54]: 5.44%
- viability, T/C [33]: 85.1%
- viability, T/C [34]: 60.3%
- viability, T/C [55]: 39.3%
- viability, T/C [56]: 25%
- viability, T/C [57]: 18.7%
- viability, T/C [58]: 3.49%

- IC50 [1]: 893 nM
- IC50 [2]: 603 nM
- IC50 [3]: 544 nM
- IC50 [4]: 262 nM
- IC50 [5]: 59.7 nM
- IC50 [6]: < 31.6 nM
Structure (SMILES): CC(C)NCC(C(=O)N1CCN(c2ncnc3c2C(C)CC3O)CC1)c1ccc(Cl)cc1 (stereo not given) + Cc1nc(NC(=O)N2CCCC2C(N)=O)sc1-c1ccnc(C(C)(C)C(F)(F)F)c1
- viability, T/C [11]: 115%
- viability, T/C [12]: 93%
- viability, T/C [35]: 59%
- viability, T/C [36]: 54.1%
- viability, T/C [37]: 31.6%
- viability, T/C [38]: 22.5%
- viability, T/C [17]: 90.3%
- viability, T/C [18]: 92.4%
- viability, T/C [39]: 58.6%
- viability, T/C [40]: 43.9%
- viability, T/C [41]: 23.5%
- viability, T/C [42]: 23.9%
- viability, T/C [23]: 94.5%
- viability, T/C [24]: 80.2%
- viability, T/C [43]: 64%
- viability, T/C [44]: 36.5%
- viability, T/C [45]: 18%
- viability, T/C [46]: 14.3%
- viability, T/C [29]: 92.5%
- viability, T/C [30]: 74.8%
- viability, T/C [47]: 45.4%
- viability, T/C [48]: 24.7%
- viability, T/C [49]: 21.4%
- viability, T/C [50]: 16.3%
- viability, T/C [31]: 56.3%
- viability, T/C [32]: 47%
- viability, T/C [51]: 25.3%
- viability, T/C [52]: 20.3%
- viability, T/C [53]: 10%
- viability, T/C [54]: 5.7%
- viability, T/C [33]: 14.2%
- viability, T/C [34]: 13.1%
- viability, T/C [55]: 7.49%
- viability, T/C [56]: 9.25%
- viability, T/C [57]: 5.71%
- viability, T/C [58]: 3.29%

- IC50 (curve of compound): > 10000 nM
Structure (SMILES): C=CC(=O)N1CCN(c2nc(=O)n(-c3c(C)ccnc3C(C)C)c3nc(-c4c(O)cccc4F)c(F)cc23)C(C)C1 (stereo not given)
- viability, T/C (compound 0.0316 µM): 98.1% [middle of 4 runs]
- viability, T/C (compound 0.1 µM): 92.8% [middle of 4 runs]
- viability, T/C (compound 0.316 µM): 98% [middle of 4 runs]
- viability, T/C (compound 1 µM): 102% [middle of 4 runs]
- viability, T/C (compound 3.16 µM): 108% [middle of 4 runs]
- viability, T/C (compound 10 µM): 90.6% [middle of 4 runs]
